The subject of one test is HT29 cells. Description: Antiproliferative activity, 72 h treatment, SRB assay, HT29. The test is classed as cell-based, human. The settings on record: HT-29, 72 h treatment; read-out: Antiproliferative activity (IC50 ± S.D.) HT-29 72 h treatment. The procedure:
(§1) HT29 and HT29/Mit (line obtained by prolonged exposure to mitoxantrone, and characterised by overexpression of BCRP, which confers cross resistance to topotecan, irinotecan and to its metabolite SN38): maintained in McCoy 5A medium+10% FCS.
(§2) 2.2 Scheme of the Antiproliferative Activity Experiment (Treatment Time: 72 Hours)
(§3) The cells (HT29 and HT29/Mit: 40,000 cells/ml, LoVo, LoVo/Dx and HCT116: 50,000 cells/ml) are seeded in 100 μl of the respective culture media in 96-well plates. 24 hours after seeding, an aliquot (10 μl) of drug at the various concentrations is added. In the samples in which the effect of the combination of two compounds is to be tested the inhibitor is added immediately before the cytotoxic. For each dose or combination of doses/drugs the effect of the treatment is determined in 4-8 replicates.
(§4) After 72 hours of treatment the antiproliferative effect is evaluated using the sulforhodamine B (SRB) assay: the cells are fixed by adding 25 μl of 50% TCA to each well and left for 1 hour at 4° C. After washing them with water and allowing them to dry, 100 μl of 0.4% SRB in 1% acetic acid are added and left for 30 minutes at room temperature. After 4 washes in 1% acetic acid, they are left to dry then the dye fixed by the proteins is dissolved under basic conditions with 100 μl 10 mM cold Tris and the solution is read using a spectrophotometer at 550 nm.
(§5) Percentage cell growth is calculated as the optical density of treated samples compared to the optical density of controls (untreated cells).

The subject of the next test is HepG2 cells. Put plainly: Antiproliferative activity, 48 h treatment, ATPlite luminescence assay, HepG2. Type of test: cell-based, human. To be noted: HepG2, 48 h treatment; read-out: Antiproliferative activity (IC50 ± S.D.) HepG2 48 h treatment. As for the experimental part: HepG2: maintained in EMEM medium+10% FCS.
2.3 Scheme of the Antiproliferative Activity Experiment (Treatment Time: 48 Hours)
The cells (concentration: 30,000 cells/ml) are seeded in 90 μl of the respective culture media in 96-well plates. 24 hours after seeding, an aliquot (10 μl) of the drug at the various concentrations is added (for each concentration there are 3 replicates). After 48 hours of treatment the antiproliferative effect is evaluated with a luminescence assay (Perkin Elmer Life Sciences ATPlite):
50 μl of a lysis solution are added to each well followed by an equal volume of a solution containing luciferase and D-luciferin. The ATP present in all the metabolically active cells brings about the transformation reaction of D-luciferin, catalysed by luciferase, to produce a luminescent signal as described in the following scheme: ATP+D-luciferin+O2→Oxyluciferin+AMP+PP1+CO2+Light
The luminescence produced (expressed in counts per second, CPS) is measured by means of a microplate scintillation analyzer (Perkin Elmer Life Sciences Top Count).
Percentage inhibition of luminescence in the treated cells compared to the control is calculated; concentration-response curves are then analysed using Grafit v.5.0.
Background: In ATP-based viability assays light output follows the ATP content of the culture.

For the next test, the system named is HT29/Mit cells. Put plainly: Antiproliferative activity, 72 h treatment, SRB assay, HT29/Mit resistant line. The test is classed as cell-based, human. The settings on record: HT-29/Mit resistant line, 72 h treatment; read-out: Antiproliferative activity (IC50 ± S.D.) HT-29/Mit. As for the experimental part:
as §1, §2, §3, §4, §5

The target of test [1] is Vacuolar ATPase in human osteoclastoma (hOc) (Homo sapiens, UniProt P27449+Q13488). Description: Vacuolar ATPase inhibition in human osteoclastoma (hOc) microsomal fraction. Type of test: biochemical. The settings on record: 30 min, 37° C. The procedure:
1.1 Determination of Vacuolar ATpase Inhibition in Human Osteoclastoma (hOc)
Osteoclast-like giant cells isolated from human osteoclastoma are homogenized using a glass-teflon homogeniser (1000 rpm) and the material is centrifuged for 20 minutes at 6000 g. The resultant pellet is resuspended and centrifuged at 100000 g for 60 minutes to sediment the microsomal fraction. The resultant pellet is resuspended in medium at pH 7.4 and stored under liquid nitrogen.
Inhibition of bafilomycin sensitive ATPase activity is assayed by measuring the release of inorganic phosphate during 30 minutes of incubation, at 37° C., of the human osteoclastoma microsomal fraction in 96-well plates. The reaction medium contains 1 mM ATP, 10 mM Hepes-Tris buffer pH 8, 50 mM KCl, 5 μM valinomycin, 5 μM nigericin, 1 mM CDTA-Tris, 100 μM ammonium molybdate, 0.2 M sucrose and the microsomal fraction (20 μg protein/ml). The reaction is initiated by adding MgSO4 and terminated, after 30 minutes, by adding 4 volumes of the reagent malachite green, prepared according to Chan K., Anal. Biochem. 157, 375-380, 1986.

For one compound, IC50 results are on record in patent publication US20070248672A1, “Indole and Azaindole Derivatives with Antitumor Action” (priority 2004, published 2007).

Some results are limits rather than exact numbers.

Vacuolar ATPase in human osteoclastoma (hOc), sequence (P27449 whole entry, looked up): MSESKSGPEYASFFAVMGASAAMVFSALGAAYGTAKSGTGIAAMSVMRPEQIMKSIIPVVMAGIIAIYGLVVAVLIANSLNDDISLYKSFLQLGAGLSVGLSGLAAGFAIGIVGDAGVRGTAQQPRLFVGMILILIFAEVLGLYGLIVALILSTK
Vacuolar ATPase in human osteoclastoma (hOc), sequence (Q13488 whole entry, looked up): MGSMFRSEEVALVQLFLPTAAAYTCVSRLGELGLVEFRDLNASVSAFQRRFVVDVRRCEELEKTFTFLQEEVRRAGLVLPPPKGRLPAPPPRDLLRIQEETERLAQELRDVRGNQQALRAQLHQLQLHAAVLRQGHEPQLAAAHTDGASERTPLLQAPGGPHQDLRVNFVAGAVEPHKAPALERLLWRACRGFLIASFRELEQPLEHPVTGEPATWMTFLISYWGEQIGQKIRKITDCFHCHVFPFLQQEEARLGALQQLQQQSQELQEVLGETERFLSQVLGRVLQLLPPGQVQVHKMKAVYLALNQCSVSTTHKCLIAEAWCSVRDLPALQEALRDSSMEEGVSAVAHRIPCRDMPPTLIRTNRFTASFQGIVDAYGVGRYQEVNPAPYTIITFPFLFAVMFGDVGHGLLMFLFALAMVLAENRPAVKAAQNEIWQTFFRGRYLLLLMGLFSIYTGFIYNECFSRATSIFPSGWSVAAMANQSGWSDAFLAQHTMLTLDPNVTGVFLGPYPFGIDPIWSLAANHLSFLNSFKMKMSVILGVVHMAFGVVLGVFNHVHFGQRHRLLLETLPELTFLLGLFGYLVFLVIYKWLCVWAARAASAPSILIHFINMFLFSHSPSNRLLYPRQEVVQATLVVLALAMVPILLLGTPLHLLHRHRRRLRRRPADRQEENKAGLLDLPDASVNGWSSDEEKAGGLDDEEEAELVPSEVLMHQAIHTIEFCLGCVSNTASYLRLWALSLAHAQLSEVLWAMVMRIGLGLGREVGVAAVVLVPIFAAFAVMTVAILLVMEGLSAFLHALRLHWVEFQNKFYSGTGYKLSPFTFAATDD

Turning to `CO/C1=C\C(C)=C\[C@@H](C)[C@@H](O)[C@@H](C)C/C(C)=C/C=C/[C@H](OC)[C@@H]([C@@H](C)[C@@H](O)[C@H](C)[C@@]2(O)C[C@@H](O)[C@H](C)[C@@H](C(C)C)O2)OC1=O` [Bafilomycin A1, reference compound], the IC50 was 3 ± 2 nM in the test with HT29 cells, less than 6 nM in the test with HepG2 cells, 5 nM in the test on HT29/Mit cells and 0.1 nM in test [1].
